Experiments:
[1] = biological target: T1, human PPARalpha (Homo sapiens, UniProt Q07869); assay: Cellular PPARalpha assay (stably transfected HEK luciferase reporter cell line); format: cell-based; conditions: PPARalpha reporter cell line (HEK, GR-GAL4-humanPPARalpha-LBD), 24 h incubation
T1 construct: human PPARalpha receptor (amino acids S167-Y468); expressed in transfected cells; host or cells: HEK cells, stably transfected (pcDNA3 construct)
T1 sequence (Q07869 167-468): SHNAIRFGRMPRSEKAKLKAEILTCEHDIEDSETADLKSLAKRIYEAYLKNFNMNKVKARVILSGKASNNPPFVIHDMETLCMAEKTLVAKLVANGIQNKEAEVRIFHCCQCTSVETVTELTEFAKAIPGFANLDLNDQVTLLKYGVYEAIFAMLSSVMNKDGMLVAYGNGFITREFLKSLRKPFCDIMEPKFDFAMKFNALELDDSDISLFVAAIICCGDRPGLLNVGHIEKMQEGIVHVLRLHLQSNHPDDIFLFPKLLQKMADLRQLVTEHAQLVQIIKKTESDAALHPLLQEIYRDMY
Procedure: Determination of EC50 Values of PPAR Agonists in the Cellular PPARalpha Assay
The potency of substances which bind to human PPARalpha and activate it in an agonistic manner is analyzed using a stably transfected HEK cell line (HEK=human embryo kidney) which is referred to here as PPARalpha reporter cell line. It contains two genetic elements, a luciferase reporter element (pdeltaM-GAL4-Luc-Zeo) and a PPARalpha fusion protein (GR-GAL4-humanPPARalpha-LBD) which mediates expression of the luciferase reporter element depending on a PPARalpha ligand. The stably and constitutively expressed fusion protein GR-GAL4-humanPPARalpha-LBD binds in the cell nucleus of the PPARalpha reporter cell line via the GAL4 protein portion to the GAL4 DNA binding motifs 5′-upstream of the luciferase reporter element which is stably integrated in the genome of the cell line. There is only little expression of the luciferase reporter gene without addition of a PPARalpha ligand if fatty acid-depleted fetal calf serum (cs-FCS) is used in the assay. PPARalpha ligands bind and activate the PPARalpha fusion protein and thereby bring about expression of the luciferase reporter gene. The luciferase which is formed can be detected by means of chemiluminescence via an appropriate substrate.
Construction of the Cell Line
The PPARalpha reporter cell line was prepared in two steps. Firstly, the luciferase reporter element was constructed and stably transfected into HEK cells. For this purpose, five binding sites of the yeast transcription factor GAL4 (in each case 5′-CGGAGTACTGTCCTCCGAG-3′) were cloned in 5′-upstream of a 68 bp-long minimal MMTV promoter (Genbank Accession # V01175). The minimal MMTV promoter section contains a CCAAT box and a TATA element in order to enable efficient transcription by RNA polymerase II. The cloning and sequencing of the GAL4-MMTV construct took place in analogy to the description of Sambrook J. et. al. (Molecular cloning, Cold Spring Harbor Laboratory Press, 1989). Then the complete Photinus pyralis luciferase gene (Genbank Accession # M15077) was cloned in 3′-downstream of the GAL4-MMTV element. After sequencing, the luciferase reporter element consisting of five GAL4 binding sites, MMTV promoter and luciferase gene was subcloned into a plasmid which confers zeozin resistance in order to obtain the plasmid pdeltaM-GAL4-Luc-Zeo. This vector was transfected into HEK cells in accordance with the statements in Ausubel, F. M. et al. (Current protocols in molecular biology, Vol. 1-3, John Wiley & Sons, Inc., 1995).
In a second step, the PPARalpha fusion protein (GR-GAL4-humanPPARalpha-LBD) was introduced into the stable cell clone described. For this purpose, initially the cDNA coding for the N-terminal 76 amino acids of the glucocorticoid receptor (Genbank Accession # P04150) was linked to the cDNA section coding for amino acids 1-147 of the yeast transcription factor GAL4 (Genbank Accession # P04386). The cDNA of the ligand-binding domain of the human PPARalpha receptor (amino acids S167-Y468; Genbank Accession # S74349) was cloned in at the 3′ end of this GR-GAL4 construct. The fusion construct prepared in this way (GR-GAL4-humanPPARalpha-LBD) was subcloned into the plasmid pcDNA3 (from Invitrogen) in order to enable constitutive expression therein by the cytomegalovirus promoter. This plasmid was linearized with a restriction endonuclease and stably transfected into the previously described cell clone containing the luciferase reporter element. The finished PPARalpha reporter cell line which contains a luciferase reporter element and constitutively expresses the PPARalpha fusion protein (GR-GAL4-humanPPARalpha-LBD) was isolated by selection with zeozin (0.5 mg/ml) and G418 (0.5 mg/ml).
The activity of PPARalpha agonists is determined in a 3-day assay which is described below: […]

[2] = biological target: T2, human PPARgamma (Homo sapiens, UniProt P37231); assay: Cellular PPARgamma assay (transiently transfected HEK cells, luciferase reporter); format: cell-based; conditions: HEK cells transiently transfected with GAL4-humanPPARgammaLBD, 48 h incubation
T2 construct: human PPARgamma receptor (amino acids 1152-Y475); expressed in transfected cells; host or cells: HEK cells, transiently transfected with pcDNA3-GAL4-humanPPARgammaLBD
T2 sequence (P37231 182-477 isoform P37231-2 limits assumed): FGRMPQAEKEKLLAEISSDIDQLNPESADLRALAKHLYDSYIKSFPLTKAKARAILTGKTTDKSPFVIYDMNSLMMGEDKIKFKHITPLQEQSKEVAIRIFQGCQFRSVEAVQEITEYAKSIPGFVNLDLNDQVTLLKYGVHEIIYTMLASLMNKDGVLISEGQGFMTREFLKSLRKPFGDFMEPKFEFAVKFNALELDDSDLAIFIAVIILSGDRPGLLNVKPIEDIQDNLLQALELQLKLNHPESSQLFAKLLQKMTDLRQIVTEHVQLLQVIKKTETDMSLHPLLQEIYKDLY
From the text: Determination of EC50 Values of PPAR Agonists in the Cellular PPARgamma Assay
A transient transfection system is employed to determine the cellular PPARgamma activity of PPAR agonists. It is based on the use of a luciferase reporter plasmid (pGL3basic-5×GAL4-TK) and of a PPARgamma expression plasmid (pcDNA3-GAL4-humanPPARgammaLBD). Both plasmids are transiently transfected into human mbryonic kidney cells (HEK cells). There is then expression in these cells of the usion protein GAL4-humanPPARgammaLBD which binds to the GAL4 binding sites of he reporter plasmid. In the presence of a PPARgamma-active ligand, the activated usion protein GAL4-humanPPARgammaLBD induces expression of the luciferase reporter gene, which can be detected in the form of a chemiluminescence signal after addition of a luciferase substrate. As a difference from the stably transfected PPARalpha reporter cell line, in the cellular PPARgamma assay the two components (luciferase reporter plasmid and PPARgamma expression plasmid) are transiently transfected into HEK cells because stable and permanent expression of the PPARgamma fusion protein is cytotoxic.
Construction of the Plasmids
The luciferase reporter plasmid pGL3basic-5×GAL4-TK is based on the vector pGL3basic from Promega. The reporter plasmid is prepared by cloning five binding sites of the yeast transcription factor GAL4 (each binding site with the sequence 5′-CTCGGAGGACAGTACTCCG-3′), together with a 160 bp-long thymidine kinase promoter section (Genbank Accession # AF027128) 5′-upstream into pGL3basic. 3′-downstream of the thymidine kinase promoter is the complete luciferase gene from Photinus pyralis (Genbank Accession # M15077), which is already a constituent of the plasmid pGL3basic used. The cloning and sequencing of the reporter plasmid pGL3basic-5×GAL4-TK took place in analogy to the description in Sambrook J. et. al. (Molecular cloning, Cold Spring Harbor Laboratory Press, 1989).
The PPARgamma expression plasmid pcDNA3-GAL4-humanPPARgammaLBD was prepared by first cloning the cDNA coding for amino acids 1-147 of the yeast transcription factor GAL4 (Genbank Accession # P04386) into the plasmid pcDNA3 (from Invitrogen) 3′-downstream of the cytomegalovirus promoter. Subsequently, the cDNA of the ligand-binding domain (LBD) of the human PPARgamma receptor (amino acids 1152-Y475; Accession # g1480099) 3′-downstream of the GAL4 DNA binding domain was cloned. Cloning and sequencing of the PPARgamma expression plasmid pcDNA3-GAL4-humanPPARgammaLBD again took place in analogy to the description in Sambrook J. et. al. (Molecular cloning, Cold Spring Harbor Laboratory Press, 1989). Besides the luciferase reporter plasmid pGL3basic-5×GAL4-TK and the PPARgamma expression plasmid pcDNA3-GAL4-humanPPARgammaLBD, also used for the cellular PPARgamma assay are the reference plasmid pRL-CMV (from Promega) and the plasmid pBluescript SK(+) from Stratagene. All four plasmids were prepared using a plasmid preparation kit from Qiagen, which ensured a plasmid quality with a minimal endotoxin content, before transfection into HEK cells.
The activity of PPARgamma agonists is determined in a 4-day assay which is described below. Before the transfection, HEK cells are cultivated in DMEM medium (#41965-039, Invitrogen) which is mixed with the following additions: 10% FCS (#16000-044, Invitrogen), 1% penicillin-streptomycin solution (#15140-122, Invitrogen) and 2 mM L-glutamine (#25030-024, Invitrogen).
Firstly, solution A, a transfection mixture which contains all four plasmids previously described in addition to DMEM medium, is prepared. […]

EC50 [1] [nM] | EC50 [2] [nM] | SMILES
12 | 1500 | CCc1oc(-c2cccc(C(F)(F)F)c2)nc1CO[C@H]1CCC[C@@H](COC(C)(C)C(=O)O)C1 [Example 5, 2-{(1R,3S)-3-[5-Ethyl-2-(3-trifluoromethylphenyl)oxazol-4-ylmethoxy]cyclo-hexylmethoxy}-2-methylpropionic acid]
3.5 | 2900 | CCc1oc(-c2ccc(C)cc2)nc1CO[C@H]1CCC[C@@H](COC(C)(C)C(=O)O)C1 [Example 2, 2-[(1R,3S)-3-(5-Ethyl-2-p-tolyloxazol-4-ylmethoxy)cyclohexylmethoxy]-2-methylpropionic acid]
4.5 | > 10000 | Cc1oc(-c2ccc(F)cc2)nc1COC1CCCC(COC(C)(C)C(=O)O)C1 (stereo not drawn) [**]

The remaining lines, values behind:

SMILES | EC50 [1] [nM] | EC50 [2] [nM]
CCCC(C)(OC[C@@H]1CCC[C@H](OCc2nc(-c3ccc4ccccc4c3)oc2C)C1)C(=O)O (mixture of isomers) [Example 15, 2-Methyl-2-{(1R,3S)-3-[5-methyl-2-(naphth-2-yl)oxazol-4-ylmethoxy]-cyclohexylmethoxy}pentanoic acid] | 0.39 | 160
COc1cccc(-c2nc(CO[C@H]3CCC[C@@H](COC(C)(C)C(=O)O)C3)c(C(C)C)o2)c1 [Example 9, 2-{(1R,3S)-3-[5-lsopropyl-2-(3-methoxypheny)oxazol-4-ylmethoxy]cyclo-hexylmethoxy}-2-methyl propionic acid] | 320 | 390
CCc1oc(-c2ccc(C(C)C)cc2)nc1CO[C@H]1CCC[C@@H](COC(C)(Cc2ccccc2)C(=O)O)C1 (mixture of isomers) [Example 20, 2-{(1R,3S)-3-[5-Ethyl-2-(4-isopropylphenyl)oxazol-4-ylmethoxy]cyclohexylmethoxy}-2-methyl-3-phenylpropionic acid] | 0.54 | 170
CCc1oc(-c2ccc3ccccc3c2)nc1CO[C@H]1CCC[C@@H](COC(C)(Cc2ccccc2)C(=O)O)C1 (mixture of isomers) [Example 19, 2-{(1R,3S)-3-[5-Ethyl-2-(naphth-2-yl)oxazol-4-ylmethoxy]cyclohexylmethoxy}-2-methyl-3-phenylpropionic acid] | 0.38 | 540
Cc1oc(-c2ccc3ccccc3c2)nc1CO[C@H]1CCC[C@@H](COC(C)(C)C(=O)O)C1 [Example 7, 2-Methyl-2-{(1R,3S)-3-[5-methyl-2-(naphth-2-yl)oxazol-4-ylmethoxy]cyclo-hexylmethoxy}propionic acid] | 1.2 | 2600
CCCC(C)(OC[C@@H]1CCC[C@H](OCc2nc(-c3cccc(OC)c3)oc2CC)C1)C(=O)O (mixture of isomers) [Example 10, 2-{(1R,3S )-3-[5-Ethyl-2-(3-methoxyphenyl)oxazol-4-ylmethoxy]cyclohexylmethoxy}-2-methylpentanoic acid] | 54 | 130
